Assay results taken from patent publication US20090176798A1, “New compounds III” (Biovitrum AB, priority 2007, published 2009).
pEC50: −log10 of the molar value.

How the values were obtained:
JEG-3 cells [1] = assay: [3H]-thymidine incorporation in JEG-3 cells (leptin assay in non-recombinant system); type: cell-based; conditions: FIG. 5
Protocol: In JEG-3 cells (choriocarcinoma cell line) leptin is able to stimulate proliferation up to 3 fold (Biol. Reprod. (2007) 76: 203-10). […] The radioactivity incorporated by the cells is an index of their proliferative activity and is measured in counts per minute (CPM) with a liquid scintillation beta counter.
This finding can be applied to test whether a compound is able to either reproduce the effect of leptin on cell proliferation (leptin receptor agonist mimetic) (i.e., a given compound will cause an increase in incorporated [^3H]-Thymidine by the cells) or to inhibit the effect of leptin (antagonistic effect) by preventing the leptin-mediated increase in [^3H]-thymidine incorporation.
This approach has the advantage of using a non-recombinant system and has reasonable reproducibility and robustness.

JEG-3 cells [2] = conditions: Biol. Reprod. (2007) 76: 203-10; cited from earlier work

pEC50 (JEG-3 cells [1]; JEG-3 cells (choriocarcinoma cell line), read-out: EC50, increase in [3H]-thymidine incorporation): 8.68
Substance: leptin: a hormone synthesized in fat cells that is believed to act in the hypothalamus to reduce food intake and body weight
concentration of maximal effect on [3H]-thymidine incorporation (JEG-3 cells [1]; JEG-3 cells): 100 nM
stimulation of proliferation (JEG-3 cells [2]): up to 3 fold
